In patent US20230374148A1, “BINDING MOLECULES THAT MULTIMERISE CD45” (UCB BIOPHARMA SRL, priority 2020, published 2023):

How the values were obtained:
Format in all cases: cell-based, human
M1 macrophages [1] = assay: Macrophage viability, CellTiter-Glo, M1; conditions: 24 hr, BYbe 250-2 nM, Camptothecin, Staurosporine 5 μM
Protocol: (§1) Human PBMC derived from blood leukocyte platelet-apheresis cones (NHSBT Oxford) were banked as frozen aliquots. Prior to an assay being performed, 2 vials of frozen cells, each containing 5×10^7 cells in 1 ml, were thawed in a 37° C. water bath and then added to 50 ml complete media (RPMI 1640+2 mM GlutaMAX+1% Pen/Strep, all previous supplied by Invitrogen, +10% Fetal Bovine Serum (FBS), Sigma Aldrich). Cells were spun (500 g, 5 min, at RT) and re-suspended in 30 ml complete media to wash and spun again. Cells were resuspended in 20 ml MACS buffer (PBS, pH 7.2, 0.5% bovine serum albumin (BSA), and 2 mM EDTA, Sigma Aldrich) and counted on a ChemoMetec NucleoCounter NC-3000 to determine concentration and viability. PBMCs from one donor (UCB-Cones 802) was used in this assay.
(§2) Monocyte isolation was performed using the Pan Monocyte Isolation Kit (Miltenyi Biotec, cat no. 130-096-537) and LS columns (Miltenyi Biotec, cat no 130-042-401) according to manufacturer's instructions. 100 μl of cells were removed and stored on ice to check monocyte purity post isolation. […]
(§3) One microplate was incubated for a further 24 hours in 37° C. incubator with 5% CO2 before being used to assess cell viability with CellTiter-Glo®. […] The plate was then read on the BMG Labtech PHERAstar FSX microplate reader using the CellTiter-Glo program.

M2 macrophages [2] = assay: Macrophage viability, CellTiter-Glo, M2; conditions: 24 hr, BYbe 250-2 nM, Camptothecin, Staurosporine 5 μM
Protocol: as §1, §2, §3

M1 macrophages [3] = assay: Caspase-3/7 induction, IncuCyte, M1; conditions: over 6 days, BYbe 250-2 nM, Camptothecin, Staurosporine 5 μM
Protocol: (§4) Human PBMC derived from blood leukocyte platelet-apheresis cones (NHSBT Oxford) were banked as frozen aliquots. Prior to an assay being performed, 2 vials of frozen cells, each containing 5×10^7 cells in 1 ml, were thawed in a 37° C. water bath and then added to 50 ml complete media (RPMI 1640+2 mM GlutaMAX+1% Pen/Strep, all previous supplied by Invitrogen, +10% Fetal Bovine Serum (FBS), Sigma Aldrich). Cells were spun (500 g, 5 min, at RT) and re-suspended in 30 ml complete media to wash and spun again. Cells were resuspended in 20 ml MACS buffer (PBS, pH 7.2, 0.5% bovine serum albumin (BSA), and 2 mM EDTA, Sigma Aldrich) and counted on a ChemoMetec NucleoCounter NC-3000 to determine concentration and viability. PBMCs from one donor (UCB-Cones 802) was used in this assay. Monocyte isolation was performed using the Pan Monocyte Isolation Kit (Miltenyi Biotec, cat no. 130-096-537) and LS columns (Miltenyi Biotec, cat no 130-042-401) according to manufacturer's instructions. 100 μl of cells were removed and stored on ice to check monocyte purity post isolation. Isolated cells were stained with BV421 mouse anti-human CD14 (BD Biosciences, cat no. 563743) to check for purity of monocytes using FACS. M-CSF (Sigma Aldrich, cat no. SRP3110) and GM-CSF (R&D Systems, cat no. 215-GM/CF) were prepared at 100 μg/ml. Cells were prepared in M1 media (complete media+50 ng/ml GM-CSF) or M2 media (complete media+50 ng/ml M-CSF) at a concentration of 2.5×10^5 cells/ml. 200 μl cells were plated into two Corning 96 well Black polystyrene microplates (Sigma Aldrich) and incubated at 37° C., 5% CO2. Following a 3-day incubation at 37° C., 5% CO2, the plate was spun (500 g, 5 min, RT), buffer was aspirated, the cells were washed once with PBS and then resuspended in 200 μL of M1 media or M2 media. […] The caspase dye was measured with the green laser (350 ms) and the cytotox dye was measured with a red laser (650 ms). The green dye signal was analysed using Incucyte® Zoom2016B. […]

M2 macrophages [4] = assay: Caspase-3/7 induction, IncuCyte, M2; conditions: over 6 days, BYbe 250-2 nM, Camptothecin, Staurosporine 5 μM
Protocol: as §4

CN[C@@H]1C[C@H]2O[C@@](C)([C@@H]1OC)n1c3ccccc3c3c4c(c5c6ccccc6n2c5c31)C(=O)NC4 [Staurosporine]
cell viability (CellTiter-Glo) (M1 macrophages [1]): little or no viable cells detected
cell viability (CellTiter-Glo) (M2 macrophages [2]): little or no viable cells detected
levels of Caspase-3/7 (M1 macrophages [3]): very low
levels of Caspase-3/7 (M2 macrophages [4]): very low

CC[C@@]1(O)C(=O)OCc2c1cc1n(c2=O)Cc2cc3ccccc3nc2-1 [Camptothecin]
cell viability (CellTiter-Glo) (M1 macrophages [1]): reduced the viability
cell viability (CellTiter-Glo) (M2 macrophages [2]): reduced the viability
levels of Caspase-3/7 (M1 macrophages [3]): significant levels
levels of Caspase-3/7 (M2 macrophages [4]): significant levels
